Experimental data reported in patent US20170008928A1, “NOVEL PEPTIDES AND PEPTIDE DERIVATIVES AND USES THEREOF” (Novo Nordisk A/S, priority 2015, published 2017).
Read-outs that look alike come from different tables or passages of the source. Each block holds one compound with its values, some of them ahead of it. Starred links: 1 amine or outer side, 2 acyl side, 3 side chain; linkers in the order of their positions; H or OH if unused. Non-standard residues stand in square brackets, D forms with d. Residues, ends and D or L forms follow the SMILES beside them. *: point of attachment. Phe(4-CH2SO3H) = N[C@@H](Cc1ccc(CS(=O)(=O)O)cc1)C(=O)O; C20 diacid = O=C(O)CCCCCCCCCCCCCCCCCCC(=O)*; sY = N[C@@H](Cc1ccc(OS(=O)(=O)O)cc1)C(=O)O; C18 diacid = O=C(O)CCCCCCCCCCCCCCCCC(=O)*; γGlu = O=C(O)[C@H](CCC(=O)[*:2])N[*:1]; 1Nal = N[C@@H](Cc1cccc2ccccc12)C(=O)O; C14 diacid = O=C(O)CCCCCCCCCCCCC(=O)*; NMeF = CN[C@@H](Cc1ccccc1)C(=O)O; dNMeD = CN[C@H](CC(=O)O)C(=O)O; Nle = CCCC[C@H](N)C(=O)O; AEEA = NCCOCCOCC(=O)O

How the values were obtained:
[1] = Pharmacokinetic (PK) studies in mini-pig, i.v.; type: in vivo; conditions: i.v. 5 nmol/kg, female Göttingen mini-pigs, harmonic mean
Method: The purpose of this study is to determine the protraction in vivo of a number of CCK derivatives of the invention after intravenous (i.v.) administration to mini-pigs, i.e. the prolongation of their time in the body and thereby their time of action. This was done in pharmacokinetic (PK) studies, where the terminal half-life of the derivative in question was determined. By terminal half-life is generally meant the period of time it takes to halve a certain plasma concentration, measured after the initial distribution phase.
The derivatives of the compounds listed in Table 4 were subjected to PK studies as described in the following.
Female Göttingen mini-pigs obtained from Ellegaard Göttingen Minipigs (Dalmose, Denmark) at approximately 6 months of age and weighing approximately 17 kg were used in the studies. […] Additional blood samples were collected for the derivatives of Examples 2, 4, 7, 8, and 9 at the following time points: 5, 12, 22, 28 and 144 hours. The blood samples were collected into test tubes containing EDTA buffer for stabilisation and kept on ice for max. 20 minutes before centrifugation. The centrifugation procedure to separate plasma was: 4° C., approx. 2500 g for 10 minutes. Plasma was collected and immediately transferred to Micronic tubes stored at −20° C. until assayed.
Plasma was pipetted into Micronic tubes on dry ice, and kept at −20° C. until analysed for plasma concentration of the respective CCK derivative using LC-MS. The plasma samples (including standard curve samples used for quantitation of unknowns and prepared from blank plasma spiked with CCK compound at a concentration range of 0.5-2000 nM for the compounds of Examples 3, 5, 6 or 0.5-1000 nM for the remaining Example compounds) were protein precipitated using three volumes of methanol and centrifuged (16000×g, 4° C., 20 min). The supernatants were injected into the chromatographic system (TurboFlow Transcend 1250 & 10 valve VIM, Thermo Fisher Scientific) which consisted of an initial Turboflow Cyclone purification column 0.5×50 mm (Thermo Fischer Scientific) and an eluting Aeris peptide 3.6 μm XB—C18 column 2.1×50 mm (Phenomenex) kept at 60° C.
The CCK derivatives of Examples 2-9 were eluted using LC-MS method I: A chromatographic gradient system with mobile phases consisting of water with 0.1 v/v % formic acid (mobile phase A) and water/acetonitrile 10/90 v/v with 0.1 v/v % formic acid (mobile phase B). The 2 minute gradient started at 60% mobile phase B and ended at 100% mobile phase B with a flow of 0.4 mL/min. The CCK derivatives were detected and quantified after on-line infusion of the LC flow to the LTQ OrbiTrap Discovery mass spectrometer (Thermo Fischer Scientific) equipped with an electrospray interface operated in negative mode, ESI− (Sheath gas flow rate at 40, Aux gas flow rate at 30, Sweep gas flow rate at 2, Spray voltage at 2.8 kV, Capillary temp. at 275° C., S-lens RF level at −125 and Heater temp. at 325° C.).
The remaining Example compounds were eluted using LC-MS method II: A chromatographic gradient system with mobile phases consisting of water with 1 v/v % formic acid (mobile phase A) and water/acetonitrile 10/90 v/v with 1 v/v % formic acid (mobile phase B). The initial 0.25 minute gradient started at 0% mobile phase B and ended at 70% mobile phase B followed by the second 2.2 minute gradient started at 70% mobile phase B and ended at 75% mobile phase B with a flow of 0.4 mL/min. These CCK derivatives were detected and quantified as described above except that the Spray voltage was 4.0 kV.
Individual plasma concentration-time profiles were analysed by a non-compartmental model in Phoenix v. 6.3 (Pharsight Inc., Mountain View, Calif., USA).

[2] = Chemical stability in 50 mM phosphate buffer pH 7.4, RP-UPLC; type: physicochemical
Method: The purpose of this assay is to assess the chemical stability of the derivatives of the invention in aqueous solutions. The chemical stability was investigated by RP-UPLC separation and UV detection.
Lyophilised samples of the derivative of Example 3 were dissolved in a 50 mM sodium phosphate buffer pH 7.4 containing 70 mM NaCl and 0.05 v/v % polysorbate 80, at a concentration of 1 mg/ml of the derivative (for the Example 3 derivative 1 mg/ml equates 0.54 mM). If necessary, pH was adjusted to 7.4. […]
RP-UPLC analysis was performed using a Waters Acquity system with the following parameters:
The following UPLC gradient was used: […]
Purity of a compound is defined as the area percentage of the compound peak in relation to the total area of all integrated peaks in the chromatogram and is calculated by the software of the apparatus. Absolute purity loss (in percentage points, pp) is determined as the difference in purity between the start sample and the sample incubated for a certain time at a certain temperature. Relative purity loss (in %) is the ratio of absolute purity loss to the purity determined in the start sample.

[3] = Chemical stability compared to CCK-8s, 8 mM phosphate pH 7.4, RP-UHPLC; type: physicochemical; conditions: after two weeks at 37° C.
Method: The resulting samples were stored in HPLC vials at 5° C. and 37° C. for 2 weeks. The samples were analysed in the beginning of the experiment (t=0), after one week and after two weeks by RP-UHPLC with a mobile phase containing phosphate and with a gradient of acetonitrile. UV detection at 215 nm was used. Samples after one week and two weeks were analysed twice. The calculations were done as described above, and the results are summarised in Table 7 (average of two determinations).

[4] = biological target: T1, human cholecystokinin-1 receptor (CCK-1R) (Homo sapiens, UniProt P32238); experiment: In vitro potency on CCK-1R, whole cell functional assay (IP1 accumulation, IP-One HTRF); type: cell-based
T1 construct: host or cells: 1321-N1 cells
T1 sequence (P32238 1-428): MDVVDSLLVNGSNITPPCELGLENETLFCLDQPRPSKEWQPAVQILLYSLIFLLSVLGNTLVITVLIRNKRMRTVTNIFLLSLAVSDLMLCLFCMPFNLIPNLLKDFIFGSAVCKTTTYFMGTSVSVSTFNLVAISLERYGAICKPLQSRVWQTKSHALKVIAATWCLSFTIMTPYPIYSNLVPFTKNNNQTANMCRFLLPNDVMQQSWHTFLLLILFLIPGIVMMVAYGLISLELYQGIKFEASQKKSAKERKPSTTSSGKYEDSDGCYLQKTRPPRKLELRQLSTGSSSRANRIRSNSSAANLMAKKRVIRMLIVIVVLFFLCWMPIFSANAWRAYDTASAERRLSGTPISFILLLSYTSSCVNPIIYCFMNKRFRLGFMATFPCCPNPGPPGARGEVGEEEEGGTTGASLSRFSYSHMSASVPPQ

SMILES: CCCC[C@H](NC(=O)[C@H](Cc1ccc(CS(=O)(=O)O)cc1)NC(=O)[C@H](CC(=O)O)NC(=O)COCCOCCNC(=O)COCCOCCNC(=O)CC[C@H](NC(=O)CCCCCCCCCCCCCCCCC(=O)O)C(=O)O)C(=O)NCC(=O)N[C@@H](Cc1c[nH]c2ccccc12)C(=O)N[C@@H](CCCC)C(=O)N(C)[C@H](CC(=O)O)C(=O)N(C)[C@@H](Cc1ccccc1)C(N)=O [Example 3, 2-[2-[2-[[2-[2-[2-[[(4S)-4-Carboxy-4-(17-carboxyheptadecanoylamino)butanoyl]amino]ethoxy]ethoxy]acetyl]amino]ethoxy]ethoxy]acetyl-Asp-Phe(4-sulfomethyl)-Nle-Gly-Trp-Nle-DMeAsp-MePhe-amide] ({C18 diacid-γGlu-AEEA-AEEA}-D[Phe(4-CH2SO3H)][Nle]GW[Nle][dNMeD][NMeF]-NH2)
chemical stability, overall ([2]; all three temperatures tested (5, 25, 37° C.), up to at least 6 weeks): very stable
short term chemical stability ([2]; same buffer, 25° C., three days, 25 μM, 100 μM and 500 μM): virtually no degradation
stability higher than the stability of CCK-8s [3]: about 50%
EC50 [4]: 0.31 nM

SMILES: CCCC[C@H](NC(=O)[C@H](Cc1c[nH]c2ccccc12)NC(=O)CNC(=O)[C@H](CC(C)C)NC(=O)[C@H](Cc1ccc(OS(=O)(=O)O)cc1)NC(=O)[C@H](CC(=O)O)NC(=O)[C@H](CO)NC(=O)[C@H](CO)NC(=O)CNC(=O)[C@H](CO)NC(=O)[C@H](CO)NC(=O)CNC(=O)CCCCCCCCCCCCCCCCC(=O)O)C(=O)N(C)[C@H](CC(=O)O)C(=O)N(C)[C@@H](Cc1ccccc1)C(N)=O [Example 29, 17-Carboxyheptadecanoyl-Gly-Ser-Ser-Gly-Ser-Ser-Asp-sTyr-Leu-Gly-Trp-Nle-DMeAsp-MePhe-amide] ({C18 diacid}-GSSGSSD[sY]LGW[Nle][dNMeD][NMeF]-NH2)
half-life ([1]; minipig, plasma, iv, read-out: Plasma terminal half-life (T½) (converted)): 119 h
CCK-1R selectivity (EC50 (CCK-2R)/EC50 (CCK-1R)) ([4]; ratio of functional EC50 values, >1 = preference for CCK-1R): 28

More lines, now with the values ahead:

Plasma terminal half-life (T½) [1]: 140 h
SMILES: CCCC[C@H](NC(=O)[C@H](Cc1ccc(OS(=O)(=O)O)cc1)NC(=O)[C@H](CC(=O)O)NC(=O)COCCOCCNC(=O)COCCOCCNC(=O)CC[C@H](NC(=O)CCCCCCCCCCCCCCCCC(=O)O)C(=O)O)C(=O)NCC(=O)N[C@@H](Cc1c[nH]c2ccccc12)C(=O)N[C@@H](CCCC)C(=O)N(C)[C@H](CC(=O)O)C(=O)N[C@@H](Cc1cccc2ccccc12)C(N)=O [Example 2, 2-[2-[2-[[2-[2-[2-[[(4S)-4-Carboxy-4-(17-carboxyheptadecanoylamino)butanoyl]amino]ethoxy]ethoxy]acetyl]amino]ethoxy]ethoxy]acetyl-Asp-sTyr-Nle-Gly-Trp-Nle-DMeAsp-1Nal-amide] ({C18 diacid-γGlu-AEEA-AEEA}-D[sY][Nle]GW[Nle][dNMeD][1Nal]-NH2)

Plasma terminal half-life (T½) [1]: 2 h
EC50 ([4]; 1321-N1 cells stably expressing CCK-1R, IP1 accumulation, average of min. three replicates, read-out: EC50 (CCK-1R)): 0.21 nM
SMILES: CCCC[C@H](NC(=O)[C@H](Cc1c[nH]c2ccccc12)NC(=O)CNC(=O)[C@H](CC(C)C)NC(=O)[C@H](Cc1ccc(CS(=O)(=O)O)cc1)NC(=O)[C@H](CC(=O)O)NC(=O)COCCOCCNC(=O)COCCOCCNC(=O)CC[C@H](NC(=O)CCCCCCCCCCCCC(=O)O)C(=O)O)C(=O)N(C)[C@H](CC(=O)O)C(=O)N(C)[C@@H](Cc1ccccc1)C(N)=O [Example 34, 2-[2-[2-[[2-[2-[2-[[(4S)-4-Carboxy-4-(13-carboxytridecanoylamino)butanoyl]amino]ethoxy]ethoxy]acetyl]amino]ethoxy]ethoxy]acetyl-Asp-Phe(4-sulfomethyl)-Leu-Gly-Trp-Nle-DMeAsp-MePhe-amide] ({C14 diacid-γGlu-AEEA-AEEA}-D[Phe(4-CH2SO3H)]LGW[Nle][dNMeD][NMeF]-NH2)

Plasma terminal half-life (T½) [1]: 153 h
SMILES: CCCC[C@H](NC(=O)[C@H](Cc1c[nH]c2ccccc12)NC(=O)CNC(=O)[C@H](CC(C)C)NC(=O)[C@H](Cc1ccc(CS(=O)(=O)O)cc1)NC(=O)[C@H](CC(=O)O)NC(=O)COCCOCCNC(=O)COCCOCCNC(=O)CC[C@H](NC(=O)CCCCCCCCCCCCCCCCCCC(=O)O)C(=O)O)C(=O)N(C)[C@H](CC(=O)O)C(=O)N(C)[C@@H](Cc1ccccc1)C(N)=O [Example 35, 2-[2-[2-[[2-[2-[2-[[(4S)-4-Carboxy-4-(19-carboxynonadecanoylamino)butanoyl]amino]ethoxy]ethoxy]acetyl]amino]ethoxy]ethoxy]acetyl-Asp-Phe(4-sulfomethyl)-Leu-Gly-Trp-Nle-DMeAsp-MePhe-amide] ({C20 diacid-γGlu-AEEA-AEEA}-D[Phe(4-CH2SO3H)]LGW[Nle][dNMeD][NMeF]-NH2)
